# Marks after values point to notes of the source that are not given here.
# Test system: severe traumatic brain injury (sTBI) in rats
# Test: HPLC of purine-pyrimidine / energy metabolites in rat brain after sTBI (Example 4)
# Type: in vivo
# Method: The effects of daily sub-cutaneous injections of dextran sulfate on glutamate excitotoxicity and mitochondrial function after severe traumatic brain injury (sTBI) in rats were evaluated by high-performance liquid chromatography (HPLC) analysis of frozen brain samples.
# The experimental protocol used in this study was approved by the Ethical Committee of the Catholic University of Rome, according to international standards and guidelines for animal care. Male Wistar rats of 300-350 g body weight (b.w.) were fed with standard laboratory diet and water ad libitum in a controlled environment.
# They were divided into three groups: • 1) n=6 animals subjected to sTBI, with drug administration after 30 minutes and sacrifice at 2 days post-TBI (Acute phase 1) • 2) n=6 animals subjected to severe-TBI, with drug administration after 30 minutes and sacrifice at 7 days post-TBI (Acute phase 2). • 3) n=6 animals subjected to severe-TBI, with drug administration after 3 days and sacrifice at 7 days post-TBI (Chronic phase).
# As the anesthetic mixture, animals received 35 mg/kg b.w. ketamine and 0.25 mg/kg b.w. midazolam by i.p. injection. sTBI was induced by dropping a 450 g weight from 2 m height on to the rat head that had been protected by a metal disk previously fixed on the skull, according to the “weight drop” impact acceleration model (Marmarou et al., A new model of diffuse brain injury in rats. Part I: Pathophysiology and biomechanics. J Neurosurg. 1994; 80: 291-300). […] At the end of each period of treatment, rats were anesthetized again and then immediately sacrificed.
# The drug treatment was a subcutaneous injection of 0.5 ml of dextran sulfate (Tikomed AB, Viken, Sweden, WO 2016/076780; 15 mg/kg) and administered according to the aforementioned schematic protocol.
# An in vivo craniectomy was performed in all animals during anesthesia, after carefully removing the rat's skull, the brain was exposed and removed with a surgical spatula and quickly dropped in liquid nitrogen. After the wet weight (w.w.) determination, tissue preparation was affected as previously disclosed (Tavazzi et al., Cerebral oxidative stress and depression of energy metabolism correlate with severity of diffuse brain injury in rats. Neurosurgery. 2005; 56: 582-589; Vagnozzi et al., Temporal window of metabolic brain vulnerability to concussions: mitochondrial-related impairment-part I. Neurosurgery. 2007; 61: 379-388; Tavazzi et al., Temporal window of metabolic brain vulnerability to concussions: oxidative and nitrosative stresses-part II. Neurosurgery. 2007; 61: 390-395; Amorini et al., Severity of experimental traumatic brain injury modulates changes in concentrations of cerebral free amino acids. J Cell Mol Med. 2017; 21: 530-542.). Briefly, whole brain homogenization was performed with 7 ml of ice-cold, nitrogen-saturated, precipitating solution composed by CH3CN+10 mM KH2PO4, pH 7.40, (3:1; v:v), and using an Ultra-Turrax set at 24,000 rpm/min (Janke & Kunkel, Staufen, Germany). After centrifugation at 20,690×g, for 10 min at 4° C., the clear supernatants were saved, pellets were supplemented with 3 ml of the precipitating solution and homogenized again as described above. A second centrifugation was performed (20,690×g, for 10 min at 4° C.), pellets were saved, supernatants combined with those previously obtained, extracted by vigorous agitation with a double volume of HPLC-grade CHCl3 and centrifuged as above. The upper aqueous phases containing water-soluble low-molecular weight compounds were collected, subjected to chloroform washings for two more times (this procedure allowed the removal of all the organic solvent and of any lipid soluble compound from the buffered tissue extracts), adjusted in volumes with 10 mM KH2PO4, pH 7.40, to have ultimately aqueous 10% tissue homogenates and saved at −80° C. until assayed. […]
# [1] = Acute phase 2 (15 mg/kg s.c. 30 min after sTBI, sacrifice 7 days post-TBI)
# [2] = Chronic phase (15 mg/kg s.c. 3 days after sTBI, sacrifice 7 days post-TBI)
# [3] = rat brain after sTBI, after administration
substance,measurement,setting,value
dextran sulfate,UDP-GalNac concentration,[1],"19.90 ± 3.12^a,e nmol/g (w.w.)"
same,UDP-Glc concentration,[1],44.44 ± 7.59^j nmol/g (w.w.)
same,UDP-GlcNac concentration,[1],130.65 ± 28.41^a nmol/g (w.w.)
same,UMP concentration,[1],138.73 ± 32.01^b nmol/g (w.w.)
same,UTP concentration,[1],146.71 ± 32.68^e nmol/g (w.w.)
same,acetyl-CoA concentration,[1],36.86 ± 4.11^e nmol/g (w.w.)
same,adenine concentration,[1],"58.16 ± 6.36^a,f nmol/g (w.w.)"
same,ascorbic acid concentration,[1],"3512.58 ± 224.62^a,e nmol/g (w.w.)"
same,creatinine concentration,[1],"37.27 ± 5.82^a,e,j nmol/g (w.w.)"
same,cytidine concentration,[1],16.18 ± 4.21^e nmol/g (w.w.)
same,cytosine concentration,[1],15.70 ± 4.10^f nmol/g (w.w.)
same,guanine concentration,[1],4.73 ± 1.07 nmol/g (w.w.)
same,guanosine concentration,[1],17.90 ± 3.24^j nmol/g (w.w.)
same,hypoxanthine concentration,[1],"12.90 ± 2.58^a,j nmol/g (w.w.)"
same,inosine concentration,[1],85.52 ± 20.36^e nmol/g (w.w.)
same,malonyl-CoA concentration,[1],11.29 ± 2.27^b nmol/g (w.w.)
same,orotic acid concentration,[1],13.34 ± 3.65^a nmol/g (w.w.)
same,thymidine concentration,[1],0.49 ± 0.20^f nmol/g (w.w.)
same,uracil concentration,[1],"19.40 ± 7.52^a,e nmol/g (w.w.)"
same,uric acid concentration,[1],"19.17 ± 2.15^a,h,i nmol/g (w.w.)"
same,uridine concentration,[1],"63.02 ± 9.66^b,e nmol/g (w.w.)"
same,xanthine concentration,[1],10.41 ± 2.11^f nmol/g (w.w.)
same,β-pseudouridine concentration,[1],"13.26 ± 3.16^a,e,j nmol/g (w.w.)"
same,ADO concentration,[2],89.97 ± 12.98^a nmol/g (w.w.)
same,ADP concentration,[2],315.53 ± 46.53^a nmol/g (w.w.)
same,ADP-ribose concentration,[2],173.94 ± 8.45^a nmol/g (w.w.)
same,AMP concentration,[2],90.01 ± 21.24^a nmol/g (w.w.)
same,ATP concentration,[2],1381.03 ± 212.64^a nmol/g (w.w.)
same,CDP choline concentration,[2],8.37 ± 2.19 nmol/g (w.w.)
same,CDP concentration,[2],23.55 ± 6.45^a nmol/g (w.w.)
same,CMP concentration,[2],"20.51 ± 3.73^a,f nmol/g (w.w.)"
same,CTP concentration,[2],"25.23 ± 2.93^a,f nmol/g (w.w.)"
same,CoA-SH concentration,[2],27.58 ± 6.24^f nmol/g (w.w.)
same,GDP concentration,[2],"173.05 ± 28.68^a,e nmol/g (w.w.)"
same,GDP glucose concentration,[2],43.85 ± 5.06^b nmol/g (w.w.)
same,GMP concentration,[2],148.56 ± 31.21^a nmol/g (w.w.)
same,GSH concentration,[2],"2608.67 ± 358.07^a,e nmol/g (w.w.)"
same,GSSG concentration,[2],"231.08 ± 44.34^b,f nmol/g (w.w.)"
same,GTP concentration,[2],"290.92 ± 34.68^a,f nmol/g (w.w.)"
same,IMP concentration,[2],99.29 ± 13.82^a nmol/g (w.w.)
same,MDA concentration,[2],"11.62 ± 3.90^a,e nmol/g (w.w.)"
same,NAA concentration,[2],"6375.36 ± 974.12^a,e nmol/g (w.w.)"
same,NADH concentration,[2],11.78 ± 3.32^e nmol/g (w.w.)
same,NADPH concentration,[2],7.34 ± 2.65^f nmol/g (w.w.)
same,NADP^+ concentration,[2],"16.44 ± 2.66^a,f nmol/g (w.w.)"
same,NAD^+ concentration,[2],301.13 ± 29.90^a nmol/g (w.w.)
same,NO2 concentration,[2],217.67 ± 55.04^a nmol/g (w.w.)
same,NO3 concentration,[2],241.27 ± 18.84^e nmol/g (w.w.)
same,UDP concentration,[2],"57.40 ± 5.88^a,f nmol/g (w.w.)"
same,UDP-Gal concentration,[2],122.29 ± 12.15 nmol/g (w.w.)
same,UDP-GalNac concentration,[2],"21.84 ± 2.80^a,e nmol/g (w.w.)"
same,UDP-Glc concentration,[2],35.79 ± 3.45^b nmol/g (w.w.)
same,UDP-GlcNac concentration,[2],129.42 ± 15.88^b nmol/g (w.w.)
same,UMP concentration,[2],103.11 ± 29.79 nmol/g (w.w.)
same,UTP concentration,[2],136.80 ± 33.25^f nmol/g (w.w.)
same,acetyl-CoA concentration,[2],35.68 ± 6.55^e nmol/g (w.w.)
same,adenine concentration,[2],"52.94 ± 8.59^a,f nmol/g (w.w.)"
same,ascorbic acid concentration,[2],"3375.03 ± 856.41^a,e nmol/g (w.w.)"
same,creatinine concentration,[2],"51.25 ± 10.17^a,f nmol/g (w.w.)"
same,cytidine concentration,[2],14.71 ± 2.83^e nmol/g (w.w.)
same,cytosine concentration,[2],"15.58 ± 2.50^b,f nmol/g (w.w.)"
same,guanine concentration,[2],5.31 ± 1.04^b nmol/g (w.w.)
same,guanosine concentration,[2],"28.87 ± 7.60^a,f nmol/g (w.w.)"
same,hypoxanthine concentration,[2],17.97 ± 4.49^a nmol/g (w.w.)
same,inosine concentration,[2],105.81 ± 25.57^f nmol/g (w.w.)
same,malonyl-CoA concentration,[2],10.00 ± 1.95^b nmol/g (w.w.)
same,orotic acid concentration,[2],12.05 ± 1.50^a nmol/g (w.w.)
same,thymidine concentration,[2],0.71 ± 0.11 nmol/g (w.w.)
same,uracil concentration,[2],"16.57 ± 2.99^a,f nmol/g (w.w.)"
same,uric acid concentration,[2],27.77 ± 3.60^a nmol/g (w.w.)
same,uridine concentration,[2],63.28 ± 3.37^f nmol/g (w.w.)
same,xanthine concentration,[2],9.35 ± 0.83^f nmol/g (w.w.)
same,β-pseudouridine concentration,[2],18.62 ± 2.80^a nmol/g (w.w.)
same,cerebral nitrate concentrations,both the acute and chronic phases of sTBI,significantly decreased
same,cerebral GSH level,[3],significant improvement
same,cerebral MDA levels,[3],significant reduction
same,cerebral NAA and its substrates,[3],significant improvements
same,cerebral ascorbic acid level,[3],significant improvement

# From patent US20240082296A1, “TREATMENT OF MUSCLE ATROPHY USING DEXTRAN SULFATE” (TX MEDIC AB, priority 2020, published 2024)
